Experimental data from PubChem BioAssay AID1963854 (Molecular Pharmacology Branch, DTP, NCI, 2024).
Values joined by “and” are separate entries in the source; they are usually repeats but may differ in a detail not shown here. Identical values can stand only once.

System: 186277-243-T-J2-PDC complex spheroid viability
Assay: Anticancer human tumor 186277-243-T-J2-PDC patient-derived colon adenocarcinoma cell line growth inhibition [POLQ]
Details: for viability, T/C: stronger effect = lower value
Experimental: Multicellular complex tumor spheroid response to Polymerase (POL) inhibitors (novobiocin, ART-558, RP6685) in combination with a variety of drugs and investigational agents in selected tumor cell lines
The POL inhibitors (novobiocin, ART-558, and RP6685) were evaluated both individually and in combination with standard of care and investigational anticancer small molecules within a complex spheroid model of solid tumors. . Complex spheroids include a stromal component modeled by human endothelial cells (HUVEC) and fibroblasts modeled by human mesenchymal stem cells (MSCs). The concentration ranges selected for each drug and investigational agent were based upon clinically achievable concentrations if the clinical Cmax of the agent was known.
Compounds. The drugs and investigational agents: novobiocin (NSC847541), ART-558 (NSC835418), RP-6685 (NSC848927), peposertib (NSC802822), ceralasertib (NSC780249), elimusertib (NSC800525), camonsertib (NSC841442), AZD-1390 (NSC803789), olaparib (NSC753686), talazoparib (NSC767125), rucaparib (NSC756644), sotorasib (NSC818433), MRTX-1133 (NSC836407), SN-38 (NSC673596), topotecan (NSC609699), epotoside (NSC141540), doxorubicin (NSC123127), gemcitabine (NSC613327), 5-fluorouracil (NSC19893), paclitaxel (NSC125973), vemurafenib (NSC761431), MSA-2 (NSC828583), SN-011 (NSC837082), adavosertib (NSC754352), prexasertib (NSC758257), carboplatin (NSC241240) and oxaliplatin (NSC266046), were obtained from the National Cancer Institute (NCI) Developmental Therapeutics Program Chemical Repository (21). The FDA-approved anticancer drug set is available from the Developmental Therapeutics Program at https://dtp.cancer.gov/organization/dscb/obtaining/. […] The stock solutions were prepared in dimethyl sulfoxide (DMSO, Sigma-Aldrich, St. Louis, MO, cat. D2650), except for the platinum compounds which were prepared in saline (Quality Biological, Gaithersburg, MD, cat. 114-055-101), at 800-fold the tested concentration and stored at -70 degrees C prior to their use. All drugs and investigational agents were tested over a range starting from a high concentration at or near the clinical Cmax and decreasing in half-log increments. If the clinical Cmax for an agent had not been determined, the highest concentration tested was 10 microM, except for SN-38, which was tested at a high concentration of 1 microM.
Cell Culture. All cells were maintained in an incubator at 37 degrees C and 5% CO2 with 95% humidity. The PDC lines were cultured according to standard operating procedures established by the NCI PDMR (https://pdmr.cancer.gov). Table 3 of the manuscript, lists the cell lines along with the number of the three cell types plated to form the mct-spheroids and media for tumor cell growth. After thawing, all PDC lines, except 997537-175-T-J1-PDC and 415267-285-R-J2-PDC, were cultured in Matrigel-coated flasks prepared with a working solution of 1X Ham's F-12 nutrient mix, without supplementation (Thermo Fisher Scientific, cat. 11765054), 100 U/mL penicillin-streptomycin (Thermo Fisher Scientific, cat. 15140122), and 2.5% Matrigel (Corning Inc., Corning, NY, cat. 354248) for the first three passages. The two PDC lines 997537-175-T-J1-PDC and 415267-285-R-J2-PDC were cultured on uncoated flasks. The 857933-349-R-J2-PDC line was cultured in 6C/Colon 1B media containing advanced DMEM/F-12 (Thermo Fisher Scientific, cat. 12634028), 10 mM HEPES (Thermo Fisher Scientific, cat. 15630080), 1X GlutaMAX supplement (Thermo Fisher Scientific, cat. 35050061), 0.1 mg/mL primocin (InvivoGen, San Diego, CA, cat. ant-pm-2), 10% defined fetal bovine serum, heat inactivated (HyClone Laboratories Inc., Logan, UT, cat. SH30070.03HI), 50% L-WRN conditioned media (ATCC, cat. CRL-3276), 1.25 mM N-Acetyl-L-cysteine (Sigma-Aldrich, cat. A9165), 10 mM nicotinamide (Sigma-Aldrich, cat. N0636), 1X B-27 supplement (Thermo Fisher Scientific, cat. 17504044), 1X N-2 supplement (Thermo Fisher Scientific, cat. […]

[1] = curve of first compound, second compound 0.0316 µM
[2] = curve of first compound, second compound 0.1 µM
[3] = curve of first compound, second compound 0.316 µM
[4] = curve of first compound, second compound 1 µM
[5] = curve of first compound, second compound 3.16 µM
[6] = curve of first compound, second compound 10 µM
[7] = second compound 0.0316 µM, first compound 0.00316 µM
[8] = second compound 0.0316 µM, first compound 0.01 µM
[9] = second compound 0.0316 µM, first compound 0.0316 µM
[10] = second compound 0.0316 µM, first compound 0.1 µM
[11] = second compound 0.1 µM, first compound 0.00316 µM
[12] = second compound 0.1 µM, first compound 0.01 µM
[13] = second compound 0.1 µM, first compound 0.0316 µM
[14] = second compound 0.1 µM, first compound 0.1 µM
[15] = second compound 0.316 µM, first compound 0.00316 µM
[16] = second compound 0.316 µM, first compound 0.01 µM
[17] = second compound 0.316 µM, first compound 0.0316 µM
[18] = second compound 0.316 µM, first compound 0.1 µM
[19] = second compound 1 µM, first compound 0.00316 µM
[20] = second compound 1 µM, first compound 0.01 µM
[21] = second compound 1 µM, first compound 0.0316 µM
[22] = second compound 1 µM, first compound 0.1 µM
[23] = second compound 3.16 µM, first compound 0.00316 µM
[24] = second compound 3.16 µM, first compound 0.01 µM
[25] = second compound 3.16 µM, first compound 0.0316 µM
[26] = second compound 3.16 µM, first compound 0.1 µM
[27] = second compound 10 µM, first compound 0.00316 µM
[28] = second compound 10 µM, first compound 0.01 µM
[29] = second compound 10 µM, first compound 0.0316 µM
[30] = second compound 10 µM, first compound 0.1 µM
[31] = second compound 0.0316 µM, first compound 0.316 µM
[32] = second compound 0.0316 µM, first compound 1 µM
[33] = second compound 0.1 µM, first compound 0.316 µM
[34] = second compound 0.1 µM, first compound 1 µM
[35] = second compound 0.316 µM, first compound 0.316 µM
[36] = second compound 0.316 µM, first compound 1 µM
[37] = second compound 1 µM, first compound 0.316 µM
[38] = second compound 1 µM, first compound 1 µM
[39] = second compound 3.16 µM, first compound 0.316 µM
[40] = second compound 3.16 µM, first compound 1 µM
[41] = second compound 10 µM, first compound 0.316 µM
[42] = second compound 10 µM, first compound 1 µM
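Note: spheroids exposed to compounds for seven days.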
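Throughout, for viability, T/C: 100% = DMSO vehicle control viability.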

## CC[C@@]1(O)C(=O)OCc2c1cc1n(c2=O)Cc2cc3c(CN(C)C)c(O)ccc3nc2-1 + COC1C(OC(N)=O)C(O)C(Oc2ccc3c(O)c(NC(=O)c4ccc(O)c(CC=C(C)C)c4)c(=O)oc3c2C)OC1(C)C
[1]
  IC50: 0.0699 µM
[2]
  IC50: 0.0607 µM
[3]
  IC50: 0.0525 µM
[4]
  IC50: 0.0487 µM
[5]
  IC50: 0.0485 µM
[6]
  IC50: 0.048 µM
Second compound 0.0316 µM, first compound 0.000316 µM
  viability, T/C: 105%
Second compound 0.0316 µM, first compound 0.001 µM
  viability, T/C: 103%
[7]
  viability, T/C: 97.4%
[8]
  viability, T/C: 114%
[9]
  viability, T/C: 65.5%
[10]
  viability, T/C: 43%
Second compound 0.1 µM, first compound 0.000316 µM
  viability, T/C: 96.1%
Second compound 0.1 µM, first compound 0.001 µM
  viability, T/C: 99.1%
[11]
  viability, T/C: 117%
[12]
  viability, T/C: 115%
[13]
  viability, T/C: 60.4%
[14]
  viability, T/C: 42%
Second compound 0.316 µM, first compound 0.000316 µM
  viability, T/C: 101%
Second compound 0.316 µM, first compound 0.001 µM
  viability, T/C: 113%
[15]
  viability, T/C: 104%
[16]
  viability, T/C: 109%
[17]
  viability, T/C: 57.9%
[18]
  viability, T/C: 40%
Second compound 1 µM, first compound 0.000316 µM
  viability, T/C: 105%
Second compound 1 µM, first compound 0.001 µM
  viability, T/C: 105%
[19]
  viability, T/C: 97.1%
[20]
  viability, T/C: 120%
[21]
  viability, T/C: 57%
[22]
  viability, T/C: 38.5%
Second compound 3.16 µM, first compound 0.000316 µM
  viability, T/C: 97.3%
Second compound 3.16 µM, first compound 0.001 µM
  viability, T/C: 107%
[23]
  viability, T/C: 102%
[24]
  viability, T/C: 107%
[25]
  viability, T/C: 56.6%
[26]
  viability, T/C: 38.9%
Second compound 10 µM, first compound 0.000316 µM
  viability, T/C: 107%
Second compound 10 µM, first compound 0.001 µM
  viability, T/C: 119%
[27]
  viability, T/C: 104%
[28]
  viability, T/C: 110%
[29]
  viability, T/C: 56.3%
[30]
  viability, T/C: 38.9%

## CCc1cc2c(N3CCc4c(cc(Cn5ccnc5)cc4-c4cn(C)nc4C(F)(F)F)C3=O)ccnc2c(OC)n1
Compound 0.0316 µM
  viability, T/C: 103% and 94.2% and 101%
Compound 0.1 µM
  viability, T/C: 91.9% and 87.2% and 87.1%
Compound 0.316 µM
  viability, T/C: 88.2% and 90.2% and 95.8%
Compound 1 µM
  viability, T/C: 84.1% and 101% and 107%
Compound 3.16 µM
  viability, T/C: 87.8% and 103% and 101%
Compound 10 µM
  viability, T/C: 83.4% and 104% and 91.2%
Curve of compound
  IC50: > 10 µM

## COc1ccc([C@@H](O)c2cc(-c3ncnc4cc(N5CCOCC5)ccc34)c(F)cc2Cl)nn1 + COC1C(OC(N)=O)C(O)C(Oc2ccc3c(O)c(NC(=O)c4ccc(O)c(CC=C(C)C)c4)c(=O)oc3c2C)OC1(C)C
[1]
  IC50: 6.3 µM
[2]
  IC50: 5.61 µM
[3]
  IC50: 5.55 µM
[4]
  IC50: 6.16 µM
[5]
  IC50: 5.34 µM
[6]
  IC50: 5.67 µM
[9]
  viability, T/C: 102%
[10]
  viability, T/C: 97.2%
[31]
  viability, T/C: 109%
[32]
  viability, T/C: 95.2%
Second compound 0.0316 µM, first compound 3.16 µM
  viability, T/C: 79%
Second compound 0.0316 µM, first compound 10 µM
  viability, T/C: 30.7%
[13]
  viability, T/C: 103%
[14]
  viability, T/C: 92.2%
[33]
  viability, T/C: 106%
[34]
  viability, T/C: 99.2%
Second compound 0.1 µM, first compound 3.16 µM
  viability, T/C: 72.6%
Second compound 0.1 µM, first compound 10 µM
  viability, T/C: 27.1%
[17]
  viability, T/C: 102%
[18]
  viability, T/C: 108%
[35]
  viability, T/C: 108%
[36]
  viability, T/C: 110%
Second compound 0.316 µM, first compound 3.16 µM
  viability, T/C: 71.1%
Second compound 0.316 µM, first compound 10 µM
  viability, T/C: 27.9%
[21]
  viability, T/C: 90.9%
[22]
  viability, T/C: 101%
[37]
  viability, T/C: 113%
[38]
  viability, T/C: 110%
Second compound 1 µM, first compound 3.16 µM
  viability, T/C: 78%
Second compound 1 µM, first compound 10 µM
  viability, T/C: 29.7%
[25]
  viability, T/C: 106%
[26]
  viability, T/C: 103%
[39]
  viability, T/C: 108%
[40]
  viability, T/C: 116%
Second compound 3.16 µM, first compound 3.16 µM
  viability, T/C: 70%
Second compound 3.16 µM, first compound 10 µM
  viability, T/C: 26.1%
[29]
  viability, T/C: 108%
[30]
  viability, T/C: 101%
[41]
  viability, T/C: 109%
[42]
  viability, T/C: 101%
Second compound 10 µM, first compound 3.16 µM
  viability, T/C: 72.6%
Second compound 10 µM, first compound 10 µM
  viability, T/C: 28%

## C=CCn1c(=O)c2cnc(Nc3ccc(N4CCN(C)CC4)cc3)nc2n1-c1cccc(C(C)(C)O)n1 + Nc1ccc(C#CCN(C(=O)Cc2ncc(C(F)(F)F)cc2C(F)(F)F)c2ccc(F)cc2)nn1
[1]
  IC50: 0.212 µM
[2]
  IC50: 0.224 µM
[3]
  IC50: 0.229 µM
[4]
  IC50: 0.214 µM
[5]
  IC50: 0.211 µM
[6]
  IC50: 0.204 µM
[7]
  viability, T/C: 95%
[8]
  viability, T/C: 91.2%
[9]
  viability, T/C: 86.9%
[10]
  viability, T/C: 87.5%
[31]
  viability, T/C: 30.1%
[32]
  viability, T/C: 15.7%
[11]
  viability, T/C: 94.8%
[12]
  viability, T/C: 107%
[13]
  viability, T/C: 109%
[14]
  viability, T/C: 99.5%
[33]
  viability, T/C: 28.8%
[34]
  viability, T/C: 15.1%
[15]
  viability, T/C: 88.5%
[16]
  viability, T/C: 105%
[17]
  viability, T/C: 93%
[18]
  viability, T/C: 101%
[35]
  viability, T/C: 31.8%
[36]
  viability, T/C: 14.4%
[19]
  viability, T/C: 89.5%
[20]
  viability, T/C: 101%
[21]
  viability, T/C: 101%
[22]
  viability, T/C: 93%
[37]
  viability, T/C: 28%
[38]
  viability, T/C: 12%
[23]
  viability, T/C: 109%
[24]
  viability, T/C: 97.5%
[25]
  viability, T/C: 110%
[26]
  viability, T/C: 98.2%
[39]
  viability, T/C: 23.7%
[40]
  viability, T/C: 13.3%
[27]
  viability, T/C: 90.9%
[28]
  viability, T/C: 98.1%
[29]
  viability, T/C: 100%
[30]
  viability, T/C: 96.5%
[41]
  viability, T/C: 21.3%
[42]
  viability, T/C: 11.2%
